As a reminder, the EC50 is the concentration that produces a half-maximal response.

Values joined by “and” are separate entries in the source; they are usually repeats but may differ in a detail not shown here. Equal entries are not always repeated.

Here are results for 2 compounds from publication PMC5394417, “Investigating the molecular mechanism of positive and negative allosteric modulators in the calcium-sensing receptor dimer” (Scientific Reports, 2017).

Test [1] concerns the target T1, HA-S170A CaSR mutant (ATD mutant) (Rattus norvegicus, UniProt P48442, S170A).
T1 construct: mGluR5 signal peptide (N); expressed in transfected cells; host or cells: HEK293T
T1 sequence (P48442 20-1079 S170A): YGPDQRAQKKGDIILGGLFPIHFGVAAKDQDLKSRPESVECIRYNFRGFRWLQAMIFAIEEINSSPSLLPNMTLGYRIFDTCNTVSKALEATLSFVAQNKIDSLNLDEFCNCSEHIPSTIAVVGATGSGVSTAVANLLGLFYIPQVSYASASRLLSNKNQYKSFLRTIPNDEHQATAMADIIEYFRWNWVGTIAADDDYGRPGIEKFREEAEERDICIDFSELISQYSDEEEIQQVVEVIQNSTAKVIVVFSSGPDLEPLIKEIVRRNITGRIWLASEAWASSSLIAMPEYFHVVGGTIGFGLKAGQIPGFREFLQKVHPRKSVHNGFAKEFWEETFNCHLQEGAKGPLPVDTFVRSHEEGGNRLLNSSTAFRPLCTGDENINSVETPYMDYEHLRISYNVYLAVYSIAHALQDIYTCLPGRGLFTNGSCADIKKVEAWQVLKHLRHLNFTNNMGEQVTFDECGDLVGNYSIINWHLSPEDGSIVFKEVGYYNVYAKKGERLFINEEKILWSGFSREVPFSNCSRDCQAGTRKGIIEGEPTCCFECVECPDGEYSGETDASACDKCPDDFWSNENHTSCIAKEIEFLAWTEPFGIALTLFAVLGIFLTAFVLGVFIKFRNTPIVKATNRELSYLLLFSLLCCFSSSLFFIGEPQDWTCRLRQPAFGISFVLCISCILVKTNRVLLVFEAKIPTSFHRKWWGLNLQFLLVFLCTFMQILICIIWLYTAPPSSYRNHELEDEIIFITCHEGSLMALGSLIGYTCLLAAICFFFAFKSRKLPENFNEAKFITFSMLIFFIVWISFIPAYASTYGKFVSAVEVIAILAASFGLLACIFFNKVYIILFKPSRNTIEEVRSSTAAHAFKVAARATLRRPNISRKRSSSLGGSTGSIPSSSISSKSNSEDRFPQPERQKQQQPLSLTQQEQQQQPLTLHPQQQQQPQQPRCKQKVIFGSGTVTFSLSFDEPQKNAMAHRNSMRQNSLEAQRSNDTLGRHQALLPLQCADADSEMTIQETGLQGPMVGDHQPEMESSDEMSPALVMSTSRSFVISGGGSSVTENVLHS
As to the kind of experiment: IP-One assay, HEK293T transiently transfected. The class given is cell-based. The method, then: (§1) Human embryonic kidney (HEK) 293T cells were cultured in DMEM supplemented with 10% dFBS and 1% P/S at 37 °C and 5% CO2. 48 h prior to assay, transient transfection was performed using Lipofectamine 2000 as the transfection reagent. White opaque 96-well culture plates (PerkinElmer, Waltham, MA, USA) were used for the ELISA and the TR-FRET dimerization assay, while clear tissue culture treated 96-well plates (Corning, Corning, NY, USA) were used for the IP-One assay. Both plate types were coated with poly-D-lysine before addition of cells and transfection mix. 0.25 μl/well of Lipofectamine 2000 were diluted in 25 μl/well of Opti-MEM and incubated at room temperature (RT) for 5 min. 0.03 μg/well of DNA was diluted in 25 μl/well of Opti-MEM, and subsequently mixed with the Lipofectamine 2000 dilution and incubated 20 min at RT before addition to the plates. Cell suspensions of 170.000 HEK293T cells/mL were prepared in complete growth medium and 100 μl/well (17.000 cells/well) was added to the plates, which were incubated for 48 h at 37 °C and 5% CO2 before performing assays.
(§2) Functional activity was measured using the IP-One assay, which is an IP1 accumulation assay. For agonist testing, ligands were prepared in final concentrations in ligand buffer (HBSS, 20 mM HEPES, pH 7.4 supplemented with 20 mM LiCl). Cells were washed once with 100 μl/well of assay buffer (HBSS, 20 mM HEPES, pH 7.4) and 50 μl/well of agonist solution was added after which plates were incubated at 37 °C for 30 min. Subsequently, ligand solutions were removed and cells were washed with 100 μl/well of assay buffer. Cell lysis was performed by addition of 30 μl/well of IP-One Conjugate & Lysis Buffer (Cisbio Bioassays, Codolet, France) and plates were incubated at RT for 30 min. Afterwards, 30 μl/well of assay buffer was added to dilute the cell lysate. 10 μl/well of cell lysate was transferred from the 96-well plate to a 384-well Optiplate and 10 μl/well of detection solution (Assay buffer + 2.5% of anti-IP1 antibody cryptate Terbium conjugate + 2.5% IP1-d2 conjugate (Cisbio Bioassays, Codolet, France)) was also added. The 384-well plate was incubated for 1 h at RT in dark before being measured on an EnVision plate reader (PerkinElmer, Waltham, MA, USA). Upon excitation at 340 nm, emission at 615 nm and 665 nm was measured, and the FRET ratio (665 nm/615 nm) was converted to IP1 concentrations by interpolating values from an IP1 standard curve generated from a provided IP1 calibrator (Cisbio Bioassays, Codolet, France). When testing allosteric modulators, cells were pre-incubated for 30 min at 37 °C with 50 μl/well of ligand buffer supplemented with allosteric modulator and a final concentration of 1% DMSO. Afterwards, the buffer solution was removed and 50 μl/well of agonist solution in ligand buffer supplemented with allosteric modulator and a final concentration of 1% DMSO was added. Plates were incubated for 30 min at 37 °C followed by one wash in 100 μl/well of assay buffer. Cell lysis and detection was performed as described above.

For test [2], the target named is T2, S170A/E837A:F801A heterodimer (Rattus norvegicus, UniProt P48442, E837A/F801A/S170A).
T2 construct: mGluR5 signal peptide (N); expressed in transfected cells; host or cells: HEK293T
T2 sequence (P48442 20-1079 S170A/E837A): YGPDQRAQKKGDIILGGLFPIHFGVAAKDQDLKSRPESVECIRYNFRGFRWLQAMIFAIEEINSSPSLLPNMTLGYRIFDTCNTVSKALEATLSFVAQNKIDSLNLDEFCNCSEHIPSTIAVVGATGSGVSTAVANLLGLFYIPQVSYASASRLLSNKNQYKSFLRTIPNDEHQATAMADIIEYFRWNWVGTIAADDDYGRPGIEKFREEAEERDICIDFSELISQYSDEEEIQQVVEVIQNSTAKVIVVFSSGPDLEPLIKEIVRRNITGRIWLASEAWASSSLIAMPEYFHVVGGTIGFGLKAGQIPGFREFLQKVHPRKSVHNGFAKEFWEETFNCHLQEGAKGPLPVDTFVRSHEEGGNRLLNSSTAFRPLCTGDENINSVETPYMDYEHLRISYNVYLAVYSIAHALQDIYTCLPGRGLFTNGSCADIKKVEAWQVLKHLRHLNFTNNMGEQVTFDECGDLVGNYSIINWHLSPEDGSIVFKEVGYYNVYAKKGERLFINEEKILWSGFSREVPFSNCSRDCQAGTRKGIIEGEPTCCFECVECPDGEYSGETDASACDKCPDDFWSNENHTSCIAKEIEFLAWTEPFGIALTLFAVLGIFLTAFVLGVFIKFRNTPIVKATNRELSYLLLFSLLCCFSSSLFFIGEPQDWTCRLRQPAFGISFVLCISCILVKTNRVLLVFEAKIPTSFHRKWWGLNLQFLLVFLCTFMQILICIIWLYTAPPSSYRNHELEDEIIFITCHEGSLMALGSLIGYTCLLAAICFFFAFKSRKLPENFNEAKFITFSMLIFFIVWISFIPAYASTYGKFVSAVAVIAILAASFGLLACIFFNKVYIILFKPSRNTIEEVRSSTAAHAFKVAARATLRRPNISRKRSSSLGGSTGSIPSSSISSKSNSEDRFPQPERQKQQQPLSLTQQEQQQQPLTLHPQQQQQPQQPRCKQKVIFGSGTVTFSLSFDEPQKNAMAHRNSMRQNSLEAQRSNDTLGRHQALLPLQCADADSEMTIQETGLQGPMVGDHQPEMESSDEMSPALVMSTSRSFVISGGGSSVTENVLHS
T2 sequence (P48442 20-1079 F801A): as the sequence (P48442 20-1079 S170A/E837A) above, with A151S, F782A, A818E counted along it
The test can be described thus: IP-One trans-activation assay, co-expression 1:1 in HEK293T. The class given is cell-based. The method, then:
as §1, §2

`[Ca+2]` [Ca^2+] displayed an EC50 in test [1] (HA-S170A, Ca^2+ alone) of more than 45 mM. Also, the “Max ± S.E.M.” value in test [1] (HA-S170A, normalized to maximum response of WT CaSR, at highest tested Ca^2+ concentration) was 17% and 17 ± 0.7%.

Regarding `COc1cccc([C@@H](C)NCCCc2ccccc2Cl)c1.Cl` [NPS R-568, NPS R-568 hydrochloride], the “potentiation of Ca^2+-mediated response” value was “concentration-dependent potentiation” in test [1] (S170A co-expressed with pEGFPN1, 23 mM Ca^2+, 0.05, 0.1 and 1 μM NPS R-568); “no potentiation was observed” in test [2] (S170A/E837A:F801A heterodimer, 0.05, 0.1 and 1 μM NPS R-568). Moreover, the “effect on Ca^2+-mediated response” value in test [2] (S170A/E837A:F801A heterodimer, highest tested concentration of NPS R-568 (1 μM)) is listed as “inhibited”.
